This passage reports viral specificity, EC50 and Kd results from patent publication US20030167129A1, “Binding compounds and methods for identifying binding compounds” (priority 2000, published 2003).

The test system of assay [1] is HIV IIIb. The format is cell-based, HIV-1. As for the experimental part: Several of these peptides have also been screened for activity in inhibition of HIV infectivity and determined to be effective in specifically blocking the entrance of HIV into cells with EC50's in the nM range. For example, the assays depicted in FIG. 12 confirm the inhibition of HIV infection by CXCR4 peptide inhibitors.
The anti-HIV activity of exemplary compounds was tested using established adherent HELA cells or Magi cell-based (Magi cell line incorporating the reporter genes) cell line infected with a variety of HIV-1 isolates. Inhibitory activity was determined using a reporter system. The cell line was modified to contain the gene for the HIV-LTR (long terminal repeat) promoter which is used by HIV after infection. This gene was coupled to an enzyme, β-galactosidase, which can cleave a substrate, CPRG (Chlorophenol red β-D-galactoside) which gives rise to a colored signal or FDG (Fluorescein di-Galactoside) which gives rise to a fluorescent signal. Thus, if the cell becomes infected with HIV, it couples to the HIV-LTR promoter, producing the enzyme β-galactosidase, which then cleaves the CPRG substrate giving rise to a measurable absorbance signal, for example, at or about 595 nm. […]
Measurements were taken four days after infection. […] EC50's were determined graphically using Kaleidagraph, a software program sold by Synergy Software, Reading, PA. […]

The target of assay [2] is T1, CXCR4 (Homo sapiens, UniProt P61073).
T1 construct: A full-length clone was not isolated with the 3′ and 5′ primers; however, two halves were isolated and ligated together; made in house; host or cells: High Five (Trichoplusia ni) insect cells, baculovirus; membrane preparation
Kind of assay: radioligand binding assay, [125I]-SDF-1α on membrane preparations of GST-CXCR4 (High Five). As to conditions: increasing [125I]-SDF-1α 0.5 nM to 10 nM; GST-CXCR4 (High Five) membranes; FIG. 7A; read-out: KD, saturation binding.
Protocol: Relative affinities were measured by modifying the radiolabel binding assay used in receptor purification. Therefore, the ability of these peptides to displace [1^251]-SDF-1 from purified CXCR4 membranes was measured.
Whole cells from Sf9 and High five cell lines were lysed using hypotonic buffers (10 mM Tris, pH 7.4, 5 mM EDTA), and membrane preparations were made by homogenization and centrifugation using standard techniques known to those skilled in the art. […] For filtration and washing, the reaction was transferred to Millipore Multiscreen filter plates (HATF 0.45 μm; pre-blocked with 10% BSA) (Bedford, Mass.), filtered using vacuum, washed 4-5 times with 200 μL ice-cold buffer, and radioactive counts bound were detected using scintillation counting. All points were done in triplicate. Uninfected cells were used as a control for this experiment. […] Analyses of KD and IC50 were performed using non-linear curve fitting in Kaleidagraph (software program sold by Synergy Software, Reading, Pa.).
The affinity for the receptor was determined using standard radioligand displacement methodology.

Assay [3] concerns the target T2, SH2 (src) (Homo sapiens, UniProt P12931).
T2 construct: SH2 (src)
As to conditions: binding domain SH2 (src); cited from earlier work.

The term pEC50 denotes the EC50 on a negative log10 scale, so that one unit is a factor of ten.

pEC50, pKd: −log10 of the molar value. Where a SMILES comes first, the peptide text is derived from it. Where no end group is shown, it is not given here. [ ]: non-standard residue; d: D form. pY = N[C@@H](Cc1ccc(OP(=O)(O)O)cc1)C(=O)O; 2Nal = N[C@@H](Cc1ccc2ccccc2c1)C(=O)O; Tic = O=C(O)[C@@H]1Cc2ccccc2CN1

T1 sequence (P61073 whole entry): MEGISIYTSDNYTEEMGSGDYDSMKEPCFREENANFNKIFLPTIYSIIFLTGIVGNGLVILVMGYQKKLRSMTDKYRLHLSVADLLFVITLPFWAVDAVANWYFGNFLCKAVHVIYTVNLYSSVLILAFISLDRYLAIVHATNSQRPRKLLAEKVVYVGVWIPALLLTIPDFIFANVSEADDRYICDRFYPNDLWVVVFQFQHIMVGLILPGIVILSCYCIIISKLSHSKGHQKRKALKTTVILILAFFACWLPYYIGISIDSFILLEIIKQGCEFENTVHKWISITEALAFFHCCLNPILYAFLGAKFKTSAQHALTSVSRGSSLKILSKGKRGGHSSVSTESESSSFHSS

Take `CC[C@H](C)[C@H](NC(=O)[C@H](CC(C)C)NC(=O)[C@H](CO)NC(=O)[C@H](CCCNC(=N)N)NC(=O)[C@H](C)N)C(=O)N[C@@H](Cc1ccc2ccccc2c1)C(=O)N[C@@H](CCCNC(=N)N)C(=O)N1Cc2ccccc2C[C@H]1C(=O)N[C@@H](C)C(=O)N[C@@H](CCCNC(=N)N)C(=O)N[C@@H](CCCNC(=N)N)C(=O)N[C@@H](Cc1ccc2ccccc2c1)C(=O)N[C@@H](CCCNC(=N)N)C(=O)N[C@@H](CCCNC(=N)N)C(N)=O` [CPI-1500, ARSLI(2-Nal)R(Tic)ARR(2-Nal)RR] (H-ARSLI[2Nal]R[Tic]ARR[2Nal]RR-NH2; N-terminus assumed): the viral specificity entry in assay [1] (HIV IIIb versus R5 virus 9881) is on record as “specificity for the HIV IIIb over the R5 virus 9881”. The pEC50 in assay [1] (HIV IIIb, FIG. 12A, read-out: EC50, inhibition of infection of HIV IIIb) is 6.55.
As to “[^125I]-SDF-1α: radiolabeled SDF-1α, the radioligand of the CXCR4 binding assay”, the pKd in assay [2] was 8.49.
Turning to pYEEIY ([pY]EEIY), the pKd in assay [3] was 7.00.
